In patent US11116757B2 (priority 2015, dated 2021):

Biological target: DCN1-UBC12 interaction (Homo sapiens (Human), UniProt Q96GG9)
Assay: biochemical
Format: binding
Conditions: Table 4, commercial compounds; read-out: TR-FRET IC50

DCN1-UBC12 interaction, sequence (Q96GG9 60-248 limits assumed): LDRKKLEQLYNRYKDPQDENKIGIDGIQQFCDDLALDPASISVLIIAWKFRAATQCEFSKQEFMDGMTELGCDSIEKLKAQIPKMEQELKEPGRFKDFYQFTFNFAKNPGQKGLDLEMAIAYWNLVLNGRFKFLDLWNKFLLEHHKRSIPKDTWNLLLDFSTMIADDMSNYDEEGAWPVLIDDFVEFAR

Point of comparison: `O=C(Nc1cccc(Br)c1)C1CCN(C(=O)c2cccc(Cl)c2)CC1` [C3], IC50 22.4 µM. Against it:
- O=C(Nc1ccc(F)cc1)C1CCN(C(=O)c2ccco2)CC1 [C31] — higher, > 67.6 µM
- O=C(Nc1cccc(C(F)(F)F)c1)C1CCN(C(=O)c2ccc(F)cc2)CC1 [C2] — 2.5-fold lower, 8.84 µM
- COc1ccc(Cl)cc1NC(=O)C1CCN(C(=O)c2ccccc2F)CC1 [C42] — higher, > 67.6 µM
- CSc1cccc(NC(=O)C2CCN(C(=O)c3ccccc3C)CC2)c1 [C5] — within 1.5-fold, 30.1 µM
- CCC1CN(C(=O)N2CCC(C(=O)Nc3cccc(Cl)c3)CC2)c2ccccc2O1 (stereo not drawn) [C55] — higher, > 67.6 µM
- CCc1cccc(NC(=O)C2CCN(C(=O)N3CC(CC)Oc4ccccc43)CC2)c1 (stereo not drawn) [C56] — higher, > 67.6 µM
- Cc1ccccc1C(=O)N1CCC(C(=O)Nc2c(F)cccc2F)CC1 [C36] — higher, > 67.6 µM
- O=C(Nc1ccc(C(F)(F)F)cc1)N1CCN(C/C=C/c2ccccc2)CC1 [C13] — higher, > 66.3 µM
- O=C(Nc1ccc(I)cc1)C1CCN(C(=O)c2ccco2)CC1 [C30] — higher, > 67.6 µM
- COc1cccc(NC(=O)C2CCN(C(=O)c3cccc(F)c3)CC2)c1 [C43] — higher, > 67.6 µM

Same assay, conditions: Table 6, commercial compounds; read-out: TR-FRET IC50

Point of comparison: `COCCN1CCN(C(=O)c2cnn(-c3nccc(-c4cccs4)n3)c2C(C)C)CC1` [E17], IC50 34.4 µM. Against it:
- CCN(CC)C(=O)c1cnn(-c2ncc(C)c(-c3cccs3)n2)c1C [E57] — higher, > 67.6 µM
- CCN(CC)C(=O)c1cnn(-c2nccc(-c3cccs3)n2)c1C1CC1 [E61] — higher, > 71.6 µM
- CCN(CC)CCN(C)C(=O)c1cnn(-c2nccc(-c3cccs3)n2)c1C(C)C [E15] — within 1.5-fold, 32.1 µM
- CCN(CC)CCN(CC)C(=O)c1cnn(-c2nccc(-c3cccs3)n2)c1C1CC1 [E2] — 7.6-fold lower, 4.53 µM
- CCN(CC)CCNC(=O)c1cnn(-c2nccc(-c3cccs3)n2)c1COC [E31] — higher, > 67.6 µM
- CCN1CCN(C(=O)c2cnn(-c3nccc(-c4cccs4)n3)c2C)CC1 [E23] — 1.7-fold higher, 57.9 µM

Same assay, conditions: Table 7, commercial compounds; read-out: TR-FRET IC50

Point of comparison: `CSc1ccc(C2c3c(C)nn(C)c3NC(=O)C2NC(=O)c2cccc(C)c2)cc1F` (stereo not drawn) [F7], IC50 41.5 µM. Against it:
- Cc1nn(C)c2c1C(c1ccc(F)c(F)c1)C(NC(=O)c1ccc(Cl)cc1)C(=O)N2 (stereo not drawn) [F26] — higher, > 67.6 µM
- CSc1ccc(C2c3c(C)nn(C)c3NC(=O)C2NC(=O)c2cccc(C)c2)cc1 (stereo not drawn) [F6] — within 1.5-fold, 39.5 µM
- Cc1cccc(C(=O)NC2C(=O)Nc3c(c(C)nn3C)C2c2ccc(C(C)C)cc2)c1 (stereo not drawn) [F16] — higher, > 67.6 µM
- Cc1cccc(C(=O)NC2C(=O)Nc3c(c(C)nn3C)C2c2ccc(C(C)(C)C)cc2)c1 (stereo not drawn) [F13] — higher, > 67.6 µM

Same assay, conditions: read-out: TR-FRET IC50

Point of comparison: `CCCCN1CCC(N(Cc2ccccc2)C(=O)Nc2cccc(F)c2)CC1` [A136], IC50 3.57 µM. Against it:
- Cc1ccc(CN2CCC(N(Cc3ccccc3)C(=O)Nc3cc(F)cc(C(F)(F)F)c3)CC2)s1 [A227] — higher, > 27 µM
- CCCCN1CCC(N(Cc2ccccc2)C(=O)Nc2cc(C(F)(F)F)cc(C(F)(F)F)c2)CC1 [A274] — higher, > 68.2 µM
- CCCC(C)N1CCC(N(Cc2ccccc2)C(=O)Nc2cc(C(F)(F)F)ccc2Cl)CC1 (stereo not drawn) [A101] — 2.2-fold lower, 1.6 µM
- CCCC(C)N1CCC(N(Cc2ccccc2)C(=O)Nc2ccc(OC)cc2)CC1 (stereo not drawn) [A158] — 2.1-fold higher, 7.67 µM
- CCCC(C)N1CCC(N(Cc2ccccc2)C(=O)Nc2cc(OC)c(OC)c(OC)c2)CC1 (stereo not drawn) [A246] — higher, > 55.6 µM
- O=C(Nc1ccc(F)c(Cl)c1)N(Cc1ccc2c(c1)OCO2)C1CCN(Cc2ccccc2)CC1 [B16] — 14-fold higher, 50.7 µM
- COc1ccc(CN(C(=O)Nc2cc(C)ccc2C)C2CCN(C(C)=O)CC2)cc1 [B82] — higher, > 67.6 µM
- CCCC(C)N1CCC(N(Cc2ccc3c(c2)OCO3)C(=O)Nc2cc(F)cc(C(F)(F)F)c2)CC1 (stereo not drawn) [A51] — 13-fold lower, 0.273 µM
- O=C(Nc1cccc(C(F)(F)F)c1)N[C@H]1CCN(Cc2ccccc2)C[C@@H]1OC(=O)Nc1cccc(C(F)(F)F)c1 [A249] — higher, > 59.6 µM
- COC(=O)[C@@H]1C[C@@H](NC(=O)Nc2ccccc2)CN1Cc1ccccc1C(F)(F)F [B99] — higher, > 68 µM
- CCCC(C)N1CCC(N(Cc2ccccc2)C(=O)Nc2ccc(CC#N)cc2)CC1 (stereo not drawn) [A176] — 3.8-fold higher, 13.7 µM
- CCc1ccccc1NC(=O)NC1CCN(Cc2ccccc2)CC1 [B53] — higher, > 67.6 µM
- O=C(Nc1ccc2c(c1)OCCO2)N(Cc1ccco1)C1CCN(Cc2ccccc2)CC1 [B115] — higher, > 74.6 µM
- CCCC(C)N1CCC(N(Cc2ccccc2)C(=O)Nc2c(C(C)C)cccc2C(C)C)CC1 (stereo not drawn) [A173] — 3.7-fold higher, 13.1 µM
- CCCN1CCC(N(CCC)C(=O)Nc2cccc(C(F)(F)F)c2)CC1 [A167, 1-Propyl-1-(1-Propylpiperidin-4-yl)-3-(3-(Trifluoromethyl)Phenyl)Urea] — 2.9-fold higher, 10.5 µM
- COc1cc(OC)cc(C(=O)N2CCC(c3nc4ccccc4s3)CC2)c1 [D22] — higher, > 67.6 µM
- CCCC(C)N1CCC(N(Cc2ccccc2)C(=O)Nc2cc(OC)ccc2Cl)CC1 (stereo not drawn) [A288] — higher, > 72.9 µM
- CCCC(C)N1CCC(N(Cc2ccccc2)C(=O)Nc2cc(F)cc(Cl)c2)CC1 (stereo not drawn) [A67] — 7.4-fold lower, 0.482 µM
- CC(C1CCCCC1)N1CCC(N(Cc2ccccc2)C(=O)Nc2cc(F)cc(C(F)(F)F)c2)CC1 (stereo not drawn) [A125] — 2-fold lower, 1.77 µM
- COc1ccc(CN(C(=O)Nc2ccccc2F)C2CCN(C(C)=O)CC2)cc1 [B86] — higher, > 67.6 µM
- FC(F)(F)c1cccc(CN2CCN(Cc3nc4ccccc4[nH]3)CC2)c1 [B28] — higher, > 46.3 µM
- CCCC(C)N1CCC(N(Cc2ccccc2)C(=O)Nc2ccc(-c3cccc(C(=O)OC)c3)cc2)CC1 (stereo not drawn) [A116] — 1.5-fold lower, 2.37 µM
- CCOc1ccccc1NC(=O)N(Cc1ccc(C)o1)C1CCN(Cc2ccccc2)CC1 [B92] — higher, > 67.6 µM
- O=C(NCc1cccc(C(F)(F)F)c1)C1CCN(Cc2ccccc2)CC1 [B41] — higher, > 63.9 µM
- CCCC(C)N1CCC(N(Cc2ccccc2)C(=O)Nc2cc(F)ccc2F)CC1 (stereo not drawn) [A281] — higher, > 70.6 µM
- CCCC(C)N1CCC(N(Cc2ccccc2)C(=O)Nc2cnc(Cl)nc2)CC1 (stereo not drawn) [A241] — higher, > 52.4 µM
- O=C(c1cccc(Br)c1)N1CCC(c2nc3cc(Cl)ccc3s2)CC1 [D18] — higher, > 60.8 µM
- CCCC(C)N1CCC(N(Cc2ccccc2)C(=O)Nc2ccccc2N2CCOCC2)CC1 (stereo not drawn) [A243] — higher, > 52.8 µM
- Cc1ccc(CN2CCC(N(Cc3ccccc3)C(=O)Nc3cc(F)cc(C(F)(F)F)c3)CC2)o1 [A219] — higher, > 24.2 µM
- O=C(c1cccc(C(F)(F)F)c1)N(Cc1ccccc1)C1CC2CCC(C1)N2Cc1ccccc1 (stereo not drawn) [A234] — higher, > 40.6 µM
- O=C(Nc1cccc(-n2cccc2)c1)NC1CCN(Cc2ccccc2)CC1 [A282, 1-(3-(1H-Pyrrol-1-yl)Phenyl)-3-(1-Benzylpiperidin-4-yl)Urea] — higher, > 71.3 µM
- C=CS(=O)(=O)NCc1cccc(CN(C(=O)Nc2cccc(C(F)(F)F)c2)C2CCN(C(C)CCC)CC2)c1 (stereo not drawn) [A1] — 830-fold lower, 0.0043 µM
- Cc1ccc(CN(C(=O)Nc2cccc(C(F)(F)F)c2)C2CCN(Cc3ccccc3)CC2)o1 [B1] — within 1.5-fold, 2.73 µM
- O=C(c1ccc(F)cc1)N1CCCC(c2nc3ccccc3s2)C1 (stereo not drawn) [D16] — higher, > 48.7 µM
- CCCC(C)N1CCC(N(Cc2ccccc2)C(=O)Nc2ccc(Cl)c(F)c2)CC1 (stereo not drawn) [A49] — 13-fold lower, 0.265 µM
- CC(=O)O[C@H]1CN(Cc2ccccc2)CC[C@@H]1NC(=O)Nc1cccc(C(F)(F)F)c1 [A160] — 2.2-fold higher, 7.89 µM
- COc1ccccc1NC(=O)N(CCCN1CCC(C)CC1)C1CCN(C(C)=O)CC1 [B96] — higher, > 67.6 µM
- CCCC(C)N1CCC(N(Cc2ccccc2CNC(=O)CCl)C(=O)Nc2cccc(C(F)(F)F)c2)CC1 (stereo not drawn) [drawing 848] — 23-fold lower, 0.154 µM
- CCCC(C)N1CCC(N(Cc2ccccc2)C(=O)Nc2c(C)cccc2C)CC1 (stereo not drawn) [A259] — higher, > 62.4 µM
- CCCC(C)N1CCC(N(Cc2ccccc2)C(=O)Nc2ccc(-c3ccc(C(=O)OC)cc3)cc2)CC1 (stereo not drawn) [A278] — higher, > 69.1 µM
- CCN1CCC(N(Cc2ccco2)C(=O)Nc2ccc(F)c(Cl)c2)CC1 [B104] — higher, > 70.9 µM
- CCCN1CCC(N(CC(C)C)C(=O)Nc2cccc(C(F)(F)F)c2)CC1 [A146, 1-Isobutyl-1-(1-Propylpiperidin-4-yl)-3-(3-(Trifluoromethyl)Phenyl)Urea] — within 1.5-fold, 4.81 µM
- O=C(Nc1cccc2ccccc12)NC1CCN(Cc2ccccc2)CC1 [B39] — higher, > 61.8 µM
- CCCC(C)N1CCC(N(Cc2ccccc2)C(=O)Nc2cccc(C(=O)OC)c2)CC1 (stereo not drawn) [A81] — 4.1-fold lower, 0.88 µM
- CCCC(C)N1CCC(N(Cc2ccccc2CNC(=O)CCl)C(=O)Nc2cccc(C(F)(F)F)c2)CC1 (stereo not drawn) [A24] — 23-fold lower, 0.154 µM
- O=C(Nc1cccc(C(F)(F)F)c1)N[C@H]1CCN(Cc2ccccc2)C[C@@H]1O [A185] — 8.4-fold higher, 30 µM
- 1-(1-((1H-Imidazol-4-yl)Methyl)Piperidin-4-yl)-1-Benzyl-3-(3-(Trifluoromethyl)Phenyl)Urea [A184] — 8.1-fold higher, 29 µM
- CCCC(C)N1CCC(N(Cc2ccccc2)C(=O)Nc2cc(F)c(F)cc2F)CC1 (stereo not drawn) [A166] — 2.8-fold higher, 10.1 µM
- CCc1ccccc1NC(=O)N(Cc1ccco1)C1CCN(C(C)=O)CC1 [B74] — higher, > 67.6 µM
- CC(=O)N1CCC(N(Cc2ccco2)C(=O)Nc2ccc(Br)c(C)c2)CC1 [B18] — 18-fold higher, 64.1 µM
- CCN1CCC(N(Cc2ccco2)C(=O)Nc2ccc(C)c(Cl)c2)CC1 [B6] — 1.9-fold higher, 6.85 µM
- Cc1nc(NC(=O)NC2CCN(Cc3ccccc3)CC2)nn1C [B25] — higher, > 16.3 µM
- CCCC(C)N1CCC(N(Cc2ccccc2)C(=O)Nc2cccc3cccnc23)CC1 (stereo not drawn) [A139] — within 1.5-fold, 4.13 µM
- Cc1cc(NC(=O)NC2CCN(Cc3ccccc3)CC2)c(C(F)(F)F)o1 [B119] — higher, > 79 µM
- CCCCN(C(=O)Nc1ccc(F)c(C(F)(F)F)c1)C1CCN(C(C)CCC)CC1 (stereo not drawn) [A87] — 3.5-fold lower, 1.01 µM
- CC(C)C(C)N1CCC(N(Cc2ccccc2)C(=O)Nc2cc(F)cc(C(F)(F)F)c2)CC1 (stereo not drawn) [A122] — 3.2-fold lower, 1.12 µM
- O=C(Nc1cccc(C(F)(F)F)c1)NC1CCN(Cc2ccccc2Cl)CC1 [A292, 1-(1-(2-Chlorobenzyl)Piperidin-4-yl)-3-(3-(Trifluoromethyl)Phenyl)Urea] — higher, > 77.3 µM
- CC(c1cccc(O)c1)N1CCC(N(Cc2ccccc2)C(=O)Nc2cc(F)cc(C(F)(F)F)c2)CC1 (stereo not drawn) [A218] — higher, > 24 µM
- CCN1CCC(N(Cc2ccco2)C(=O)Nc2ccc(Br)c(C)c2)CC1 [B2] — within 1.5-fold, 3 µM
- CCCC(C)N1CCC(N(Cc2cccc(CNC(=O)CCl)c2)C(=O)Nc2cccc(C(F)(F)F)c2)CC1 (stereo not drawn) [drawing 847] — lower, < 0.01 µM
- CCCC(C)N1CCC(N(Cc2ccccc2)C(=O)NCc2ccc(N)cc2)CC1 (stereo not drawn) [A233] — higher, > 39.4 µM
- COc1cccc(C(=O)N2CCC(c3nc4ccccc4s3)CC2)c1 [D14] — 19-fold higher, 66.4 µM
- 1-Benzyl-1-(1-(3,3-Dimethylbutyl)Piperidin-4-yl)-3-(3-(Trifluoromethyl)Phenyl)Urea [A298] — higher, > 85 µM
